# From patent US12264134B2 (Merck Sharp & Dohme LLC, priority 2018, dated 2025)
# Tests used:
# IDO1 [1] = molecular target: T1, IDO1 (Homo sapiens, UniProt P14902); experiment: IDO1 Human Whole blood Assay; type: cell-based; set-up: Human whole blood was drawn in sodium heparin coated tubes from healthy internal donors; from tissue; host or cells: human whole blood from healthy donors, stimulated with LPS and IFNγ; details: LPS and IFNγ stimulated, 18 h, read-out: Human Whole Blood Potency, IC50
# T1 sequence (P14902 whole entry): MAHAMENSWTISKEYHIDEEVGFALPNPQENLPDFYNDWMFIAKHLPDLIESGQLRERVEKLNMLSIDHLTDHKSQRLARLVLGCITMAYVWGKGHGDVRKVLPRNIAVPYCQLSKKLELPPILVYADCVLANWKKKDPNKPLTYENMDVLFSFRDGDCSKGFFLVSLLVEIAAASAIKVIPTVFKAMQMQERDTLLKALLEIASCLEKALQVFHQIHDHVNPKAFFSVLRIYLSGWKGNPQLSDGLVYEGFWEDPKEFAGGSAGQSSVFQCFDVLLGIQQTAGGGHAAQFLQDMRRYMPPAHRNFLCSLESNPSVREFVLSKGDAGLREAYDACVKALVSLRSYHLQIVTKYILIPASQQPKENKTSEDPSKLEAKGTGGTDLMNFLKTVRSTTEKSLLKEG
# Method: IDO1Human Whole blood Assay
# Compounds to be tested were serially diluted in ten 3-fold steps in DMSO starting from 10 mM. 3 μL of compound dilutions or DMSO alone were then dispensed from the dilution plate into a polypropylene 96-well assay plate containing 97 μL of RPMI medium using an Echo 555 acoustic liquid handler (Labcyte). LPS and IFNγ was prepared in RPMI medium to a 10× of final conc. (1000 ng/mL), final concentration is 100 ng/mL.
# Human whole blood was drawn in sodium heparin coated tubes from healthy internal donors. 240 μL of blood was transferred to each of the wells of a v-bottom 96 well plate. 30 μL of compound was transferred from intermediate dilution plate, and incubated for 15 min. 30 μL from stimulants was then transferred to blood and mixed thoroughly. Plate was covered with breathable membrane and incubated at 37° C. for overnight (18 h).
# On day 2, isotope labeled standard solutions of kynurenine and tryptophan was made in water at 10× concentration and 30 μL was added to the blood at 3 μM final concentration. The assay plates were centrifuged at 300×G for 10 min with no brake to separate plasma from red blood cells. 60 μL of plasma samples was removed without disturbing red blood cells. Plasma was diluted with RPMI in 1:1 ratio and proteins were precipitated out with two volumes of Acetonitrile. The plates were centrifuged at 4000×G for 60 min. 20 μL of supernatant was carefully transferred to a 384 well plate containing 40 μL of 0.1% formic acid in water and analyzed by LC/MS/MS.
# LC/MS/MS analyses were performed using Thermo Fisher's LX4-TSQ Quantum Ultra system. This system consists of four Agilent binary high-performance liquid chromatography (HPLC) pumps and a TSQ Quantum Ultra triple quadrupole MS/MS instrument. For each sample, 5 μL were injected onto an Atlantis T3 column (2.1 mm×150 mm, 3 μm particle size) from Waters. The mobile phase gradient pumped at 0.8 mL/min was used to elute the analytes from the column at 25° C. The elution started at 0% B increasing linearly to 25% B at 6.5 min, holding at 25% for 1 min, re-equilibrating to 10 min. Mobile phase A consisted of 0.1% formic acid in water. Mobile phase B consisted of 0.1% of formic acid in acetonitrile. Data were acquired in positive mode using a HESI interface. The operational parameters for the TSQ Quantum Ultra instrument were a spray voltage of 4000 V, capillary temperature of 380° C., vaporizer temperature 400° C., shealth gas 60 arbitrary units, Aux gas 20 arbitrary units, tube lens 85 and collision gas 1.2 mTorr. SRM chromatograms of kynurenine (Q1: 209.2>Q3:94.0) and internal standard (Q1: 215.3>Q3:98.2) were collected for 90 sec. The peak area was integrated by Xcalibur Quan software. The ratios between the kynurenine generated in the reaction and 2D6-Kynurenine spiked-in internal standard were used to generate percentage inhibition and IC50 values. Compounds were titrated and IC50's were calculated by 4 parameter sigmoidal curve fitting formula.
# IDO1 [2] = molecular target: T1, IDO1; experiment: IDO1 Cellular Assay in HeLa Cells Stimulated with IFNγ; type: cell-based; details: read-out: HeLa Cell Potency, IC50
SMILES,IC50 (IDO1 [1]) [nM],IC50 (IDO1 [2]) [nM]
"Cc1cccc(N2CCN(C(=O)Cn3nc(C(=O)N4C[C@@H](C)O[C@@H](C)C4)c4c3CCC4)CC2)c1C [Example 88, 2-{3-[(2R,6S)-2,6-dimethylmorpholine-4-carbonyl]-5,6-dihydrocyclopenta[c]pyrazol-1(4H)-yl}-1-[4-(2,3-dimethylphenyl)piperazin-1-yl]ethan-1-one]",416,2.56
"Cc1cccc(N2CCN(C(=O)Cn3nc(C(=O)N4CCN(S(=O)(=O)N(C)C)CC4)c4c3CCC4)CC2)c1C [Example 89, 4-(1-{2-[4-(2,3-dimethylphenyl)piperazin-1-yl]-2-oxoethyl}-1,4,5,6-tetrahydrocyclopenta[c]pyrazole-3-carbonyl)-N,N-dimethylpiperazine-1-sulfonamide]",454,2.96
"Cc1cccc(N2CCN(C(=O)Cn3nc(C(=O)N4CC[C@H](O)[C@H](F)C4)c4c3CCC4)CC2)c1C [Example 92, 1-[4-(2,3-dimethylphenyl)piperazin-1-yl]-2-{3-[(3R,4S)-3-fluoro-4-hydroxypiperidine-1-carbonyl]-5,6-dihydrocyclopenta[c]pyrazol-1(4H)-yl}ethan-1-one]",256,10.8
"Cc1cccc(N2CCN(C(=O)Cn3nc(C(=O)N4CCC5(CCOC5)CC4)c4c3CCC4)CC2)c1C [Example 93, 1-[4-(2,3-dimethylphenyl)piperazin-1-yl]-2-[3-(2-oxo-8-azaspiro[4.5]decane-8-carbonyl)-5,6-dihydrocyclopenta[c]pyrazol-1(4H)-yl]ethan-1-one]",180,3.11
"Cc1cccc(N2CCN(C(=O)Cn3nc(C(=O)N4CC[C@H](O)[C@@H](C)C4)c4c3CCC4)CC2)c1C [Example 94, 1-[4-(2,3-dimethylphenyl)piperazin-1-yl]-2-{3-[(3S,4S)-4-hydroxy-3-methylpiperidine-1-carbonyl]-5,6-dihydrocyclopenta[c]pyrazol-1(4H)-yl}ethan-1-one]",345,2.46
"Cc1cccc(N2CCN(C(=O)Cn3nc(C(=O)N4CCC(CO)CC4)c4c3CCC4)CC2)c1C [Example 101, 1-[4-(2,3-dimethylphenyl)piperazin-1-yl]-2-{3-[4-(hydroxymethyl)piperidine-1-carbonyl]-5,6-dihydrocyclopenta[c]pyrazol-1(4H)-yl}ethan-1-one]",711,6.12
"Cc1cccc(N2CCN(C(=O)Cn3nc(C(=O)N4CCC(OCCO)CC4)c4c3CCC4)CC2)c1C [Example 120, 1-[4-(2,3-dimethylphenyl)piperazin-1-yl]-2-{3-[4-(2-hydroxyethoxy)piperidine-1-carbonyl]-5,6-dihydrocyclopenta[c]pyrazol-1(4H)-yl}ethan-1-one]",199,2.97
"Cc1cccc(N2CCN(C(=O)Cn3nc(C(=O)N4CC[C@@H](O)C[C@@H]4C)c4c3CCC4)CC2)c1C [Example 125, 1-[4-(2,3-dimethylphenyl)piperazin-1-yl]-2-{3-[(2S,4R)-4-hydroxy-2-methylpiperidine-1-carbonyl]-5,6-dihydrocyclopenta[c]pyrazol-1(4H)-yl}ethan-1-one]",444,3.29
"Cc1cccc(N2CCN(C(=O)Cn3nc(C(=O)N4CCC(N5CCNC5=O)CC4)c4c3CCC4)CC2)c1C [Example 130, 1-[1-(1-{2-[4-(2,3-dimethylphenyl)piperazin-1-yl]-2-oxoethyl}-1,4,5,6-tetrahydrocyclopenta[c]pyrazole-3-carbonyl)piperidin-4-yl]imidazolidin-2-one]",175,3.54

# Further compounds by falling IC50 (IDO1 [1]), results first:
IC50 (IDO1 [1]) [nM],IC50 (IDO1 [2]) [nM],SMILES
9550,5.8,"Cc1cccc(N2CCN(C(=O)Cn3nc(C(=O)N4CC[C@@H](O)[C@H](F)C4)c4c3CCC4)CC2)c1C [Example 91, 1-[4-(2,3-dimethylphenyl)piperazin-1-yl]-2-{3-[(3R,4R)-3-fluoro-4-hydroxypiperidine-1-carbonyl]-5,6-dihydrocyclopenta[c]pyrazol-1(4H)-yl}ethan-1-one]"
877,1.32,"Cc1cccc(N2CCN(C(=O)Cn3nc(C(=O)N4CCN(S(C)(=O)=O)C[C@@H]4C)c4c3CCC4)CC2)c1C [Example 124, 1-[4-(2,3-dimethylphenyl)piperazin-1-yl]-2-{3-[(2S)-2-methyl-4-(methylsulfonyl)piperazine-1-carbonyl]-5,6-dihydrocyclopenta[c]pyrazol-1(4H)-yl}ethan-1-one]"
802,3.87,"Cc1cccc(N2CCN(C(=O)Cn3nc(C(=O)N4CC[C@@H](O)[C@@H](C)C4)c4c3CCC4)CC2)c1C [Example 106, 1-[4-(2,3-dimethylphenyl)piperazin-1-yl]-2-{3-[(3S,4R)-4-hydroxy-3-methylpiperidine-1-carbonyl]-5,6-dihydrocyclopenta[c]pyrazol-1(4H)-yl}ethan-1-one]"
399,1.86,"Cc1cccc(N2CCN(C(=O)Cn3nc(C(=O)N4CC[C@H](O)[C@@H](C)C4)c4c3CCC4)CC2)c1C [Example 109, 1-[4-(2,3-dimethylphenyl)piperazin-1-yl]-2-{3-[(3S,4S)-4-hydroxy-3-methylpiperidine-1-carbonyl]-5,6-dihydrocyclopenta[c]pyrazol-1(4H)-yl}ethan-1-one]"
311,3.08,"Cc1cccc(N2CCN(C(=O)Cn3nc(C(=O)N4CCC(n5ncnn5)CC4)c4c3CCC4)CC2)c1C [Example 129, 1-[4-(2,3-dimethylphenyl)piperazin-1-yl]-2-{3-[4-(2H-tetrazol-2-yl)piperidine-1-carbonyl]-2,6-dihydrocyclopenta[c]pyrazol-1(4H)-yl}ethan-1-one]"
300,2.61,"COC1CCN(C(=O)c2nn(CC(=O)N3CCN(c4cccc(C)c4C)CC3)c3c2CCC3)CC1 [Example 126, 1-[4-(2,3-dimethylphenyl)piperazin-1-yl]-2-[3-(4-methoxypiperidine-1-carbonyl)-5,6-dihydrocyclopenta[c]pyrazol-1(4H)-yl]ethan-1-one]"
292,2.9,"Cc1cccc(N2CCN(C(=O)Cn3nc(C(=O)N4CCC(NS(C)(=O)=O)CC4)c4c3CCC4)CC2)c1C [Example 90, N-[1-(1-{2-[4-(2,3-dimethylphenyl)piperazin-1-yl]-2-oxoethyl}-1,4,5,6-tetrahydrocyclopenta[c]pyrazole-3-carbonyl)piperidin-4-yl]methanesulfonamide]"
192,4.07,"CC(=O)NC1CCN(C(=O)c2nn(CC(=O)N3CCN(c4cccc(C)c4C)CC3)c3c2CCC3)CC1 [Example 128, N-[1-(1-{2-[4-(2,3-dimethylphenyl)piperazin-1-yl]-2-oxoethyl}-1,4,5,6-tetrahydrocyclopenta[c]pyrazole-3-carbonyl)piperidin-4-yl]acetamide]"
154,1.2,"Cc1cccc(N2CCN(C(=O)Cn3nc(C(=O)N4CC[C@H](O)[C@H](C)C4)c4c3CCC4)CC2)c1C [Example 107, 1-[4-(2,3-dimethylphenyl)piperazin-1-yl]-2-{3-[(3R,4S)-4-hydroxy-3-methylpiperidine-1-carbonyl]-5,6-dihydrocyclopenta[c]pyrazol-1(4H)-yl}ethan-1-one]"
126,2.36,"Cc1cccc(N2CCN(C(=O)Cn3nc(C(=O)N4CCN(S(C)(=O)=O)CC4)c4c3CCC4)CC2)c1C [Example 127, 1-[4-(2,3-dimethylphenyl)piperazin-1-yl]-2-{3-[4-(methylsulfonyl)piperazine-1-carbonyl]-5,6-dihydrocyclopenta[c]pyrazol-1(4H)-yl}ethan-1-one]"
77,1.79,"Cc1cccc(N2CCN(C(=O)Cn3nc(C(=O)N4CC[C@@H](O)[C@H](C)C4)c4c3CCC4)CC2)c1C [Example 108, 1-[4-(2,3-dimethylphenyl)piperazin-1-yl]-2-{3-[(3R,4R)-4-hydroxy-3-methylpiperidin-1-carbonyl]-5,6-dihydrocyclopenta[c]pyrazol-1(4H)-yl}ethan-1-one]"
